From patent US9995734B2, “Human T cell line assay for evaluating the immunologic identity of glatiramer acetate preparations” (Mylan Inc., priority 2013, dated 2018)
Where “and” joins values, the source holds several entries; their conditions need not be identical. Equal entries are not always repeated.

Tests used:
Donor 3 GMA T-Cell Lines = assay: ATP proliferation assay (CellTiter Glo), Donor 3 GMA T-cell lines, incl. reactivity to non-canonical GA peptides; type: cell-based, human; conditions: for Non-Canonical Peptide Non-Reactivity: proliferation <2 times no antigen control
Donor 3 COP T-Cell Lines = assay: ATP proliferation assay (CellTiter Glo), Donor 3 COP T-cell lines, incl. reactivity to non-canonical GA peptides; type: cell-based, human; conditions: for Non-Canonical Peptide Non-Reactivity: proliferation <2 times no antigen control

Substance: poly (Glu-Ala-Tyr; 1:1:1) [GAT 111]
- Non-Canonical Peptide Non-Reactivity (Donor 3 GMA T-Cell Lines; 165-B5G): GAT 111
- Non-Canonical Peptide Non-Reactivity (Donor 3 GMA T-Cell Lines; 165-C5G): GAT 111
- Non-Canonical Peptide Non-Reactivity (Donor 3 GMA T-Cell Lines; 165-E7G): GAT 111
- Non-Canonical Peptide Non-Reactivity (Donor 3 GMA T-Cell Lines; 165-E9G): GAT 111
- Non-Canonical Peptide Non-Reactivity (Donor 3 GMA T-Cell Lines; 165-F5G): GAT 111
- Non-Canonical Peptide Non-Reactivity (Donor 3 GMA T-Cell Lines; 165-F10G): GAT 111
- Non-Canonical Peptide Non-Reactivity (Donor 3 GMA T-Cell Lines; 165-H11G): GAT 111
- Nonreactive T-Cell Line (Donor 3 GMA T-Cell Lines; Donor 3 GMA lines, stimulation with the non-canonical GA peptide): 165-B5G (Donor 3) and 165-C5G (Donor 3) and 165-C8G (Donor 3) and 165-E7G (Donor 3) and 165-E9G (Donor 3) and 165-F5G (Donor 3) and 165-F10G (Donor 3) and 165-H11G (Donor 3)
- Proliferation (luminescent ATP assay), Mean (Donor 3 GMA T-Cell Lines; T-cell line 165-05G, 1 μg/mL antigen, Day 50 of culturing, No Antigen Value 2149): 1778 RLU
- Proliferation (luminescent ATP assay), Mean (Donor 3 GMA T-Cell Lines; T-cell line 165-05G, 3 μg/mL antigen, Day 50 of culturing, No Antigen Value 2149): 1661 RLU
- Proliferation (luminescent ATP assay), Mean (Donor 3 GMA T-Cell Lines; T-cell line 165-05G, 10 μg/mL antigen, Day 50 of culturing, No Antigen Value 2149): 1569 RLU
- Proliferation (luminescent ATP assay), Mean (Donor 3 GMA T-Cell Lines; T-cell line 165-05G, 30 μg/mL antigen, Day 50 of culturing, No Antigen Value 2149): 1449 RLU
- Proliferation (luminescent ATP assay), Mean (Donor 3 GMA T-Cell Lines; T-cell line 165-B5G, 1.25 μg/mL antigen, Day 55 of culturing, No Antigen Value 846): 1005 RLU
- Proliferation (luminescent ATP assay), Mean (Donor 3 GMA T-Cell Lines; T-cell line 165-B5G, 2.5 μg/mL antigen, Day 55 of culturing, No Antigen Value 846): 886 RLU
- Proliferation (luminescent ATP assay), Mean (Donor 3 GMA T-Cell Lines; T-cell line 165-B5G, 5 μg/mL antigen, Day 55 of culturing, No Antigen Value 846): 947 RLU
- Proliferation (luminescent ATP assay), Mean (Donor 3 GMA T-Cell Lines; T-cell line 165-B5G, 10 μg/mL antigen, Day 55 of culturing, No Antigen Value 846): 931 RLU
- Proliferation (luminescent ATP assay), Mean (Donor 3 GMA T-Cell Lines; T-cell line 165-C5G, 1.25 μg/mL antigen, autologous B-LCL): 445 RLU
- Proliferation (luminescent ATP assay), Mean (Donor 3 GMA T-Cell Lines; T-cell line 165-C5G, 2.5 μg/mL antigen, autologous B-LCL): 406 RLU
- Proliferation (luminescent ATP assay), Mean (Donor 3 GMA T-Cell Lines; T-cell line 165-C5G, 5 μg/mL antigen, autologous B-LCL): 422 RLU
- Proliferation (luminescent ATP assay), Mean (Donor 3 GMA T-Cell Lines; T-cell line 165-C5G, 10 μg/mL antigen, autologous B-LCL): 430 RLU
- Proliferation (luminescent ATP assay), Mean (Donor 3 GMA T-Cell Lines; T-cell line 165-E7G, 1.25 μg/mL antigen, autologous B-LCL, Day 55): 1896 RLU
- Proliferation (luminescent ATP assay), Mean (Donor 3 GMA T-Cell Lines; T-cell line 165-E7G, 2.5 μg/mL antigen, autologous B-LCL, Day 55): 2001 RLU
- Proliferation (luminescent ATP assay), Mean (Donor 3 GMA T-Cell Lines; T-cell line 165-E7G, 5 μg/mL antigen, autologous B-LCL, Day 55): 1285 RLU
- Proliferation (luminescent ATP assay), Mean (Donor 3 GMA T-Cell Lines; T-cell line 165-E7G, 10 μg/mL antigen, autologous B-LCL, Day 55): 2176 RLU
- Proliferation (luminescent ATP assay), Mean (Donor 3 GMA T-Cell Lines; T-cell line 165-E9G, 1 μg/mL antigen, Day 50 of culturing, No Antigen Value 1742): 1528 RLU
- Proliferation (luminescent ATP assay), Mean (Donor 3 GMA T-Cell Lines; T-cell line 165-E9G, 1.25 μg/mL antigen, autologous B-LCL): 154 RLU
- Proliferation (luminescent ATP assay), Mean (Donor 3 GMA T-Cell Lines; T-cell line 165-E9G, 2.5 μg/mL antigen, autologous B-LCL): 240 RLU
- Proliferation (luminescent ATP assay), Mean (Donor 3 GMA T-Cell Lines; T-cell line 165-E9G, 3 μg/mL antigen, Day 50 of culturing, No Antigen Value 1742): 1454 RLU
- Proliferation (luminescent ATP assay), Mean (Donor 3 GMA T-Cell Lines; T-cell line 165-E9G, 5 μg/mL antigen, autologous B-LCL): 240 RLU
- Proliferation (luminescent ATP assay), Mean (Donor 3 GMA T-Cell Lines; T-cell line 165-E9G, 10 μg/mL antigen, autologous B-LCL): 153 RLU
- Proliferation (luminescent ATP assay), Mean (Donor 3 GMA T-Cell Lines; T-cell line 165-E9G, 30 μg/mL antigen, Day 50 of culturing, No Antigen Value 1742): 1301 RLU
- Proliferation (luminescent ATP assay), Mean (Donor 3 GMA T-Cell Lines; T-cell line 165-E9G, 10 μpg/mL antigen, Day 50 of culturing, No Antigen Value 1742): 1462 RLU
- Proliferation (luminescent ATP assay), Mean (Donor 3 GMA T-Cell Lines; T-cell line 165-F5G, 1.25 μg/mL antigen, autologous B-LCL): 139 RLU
- Proliferation (luminescent ATP assay), Mean (Donor 3 GMA T-Cell Lines; T-cell line 165-F5G, 2.5 μg/mL antigen, autologous B-LCL): 121 RLU
- Proliferation (luminescent ATP assay), Mean (Donor 3 GMA T-Cell Lines; T-cell line 165-F5G, 5 μg/mL antigen, autologous B-LCL): 142 RLU
- Proliferation (luminescent ATP assay), Mean (Donor 3 GMA T-Cell Lines; T-cell line 165-F5G, 10 μg/mL antigen, autologous B-LCL): 122 RLU
- Proliferation (luminescent ATP assay), Mean (Donor 3 GMA T-Cell Lines; T-cell line 165-F10G, 1 μg/mL antigen, Day 50 of culturing, No Antigen Value 3752): 3575 RLU
- Proliferation (luminescent ATP assay), Mean (Donor 3 GMA T-Cell Lines; T-cell line 165-F10G, 1.25 μg/mL antigen, autologous B-LCL): 929 RLU
- Proliferation (luminescent ATP assay), Mean (Donor 3 GMA T-Cell Lines; T-cell line 165-F10G, 2.5 μg/mL antigen, autologous B-LCL): 1342 RLU
- Proliferation (luminescent ATP assay), Mean (Donor 3 GMA T-Cell Lines; T-cell line 165-F10G, 3 μg/mL antigen, Day 50 of culturing, No Antigen Value 3752): 2989 RLU
- Proliferation (luminescent ATP assay), Mean (Donor 3 GMA T-Cell Lines; T-cell line 165-F10G, 5 μg/mL antigen, autologous B-LCL): 1091 RLU
- Proliferation (luminescent ATP assay), Mean (Donor 3 GMA T-Cell Lines; T-cell line 165-F10G, 10 μg/mL antigen, Day 50 of culturing, No Antigen Value 3752): 2876 RLU
- Proliferation (luminescent ATP assay), Mean (Donor 3 GMA T-Cell Lines; T-cell line 165-F10G, 10 μg/mL antigen, autologous B-LCL): 1054 RLU
- Proliferation (luminescent ATP assay), Mean (Donor 3 GMA T-Cell Lines; T-cell line 165-F10G, 30 μg/mL antigen, Day 50 of culturing, No Antigen Value 3752): 2299 RLU
- Proliferation (luminescent ATP assay), Mean (Donor 3 GMA T-Cell Lines; T-cell line 165-H11G, 1 μg/mL antigen, Day 50 of culturing, No Antigen Value 1485): 2448 RLU
- Proliferation (luminescent ATP assay), Mean (Donor 3 GMA T-Cell Lines; T-cell line 165-H11G, 1.25 μg/mL antigen, autologous B-LCL): 49 RLU
- Proliferation (luminescent ATP assay), Mean (Donor 3 GMA T-Cell Lines; T-cell line 165-H11G, 2.5 μg/mL antigen, autologous B-LCL): 320 RLU
- Proliferation (luminescent ATP assay), Mean (Donor 3 GMA T-Cell Lines; T-cell line 165-H11G, 3 μg/mL antigen, Day 50 of culturing, No Antigen Value 1485): 2294 RLU
- Proliferation (luminescent ATP assay), Mean (Donor 3 GMA T-Cell Lines; T-cell line 165-H11G, 5 μg/mL antigen, autologous B-LCL): 304 RLU
- Proliferation (luminescent ATP assay), Mean (Donor 3 GMA T-Cell Lines; T-cell line 165-H11G, 10 μg/mL antigen, Day 50 of culturing, No Antigen Value 1485): 2102 RLU
- Proliferation (luminescent ATP assay), Mean (Donor 3 GMA T-Cell Lines; T-cell line 165-H11G, 10 μg/mL antigen, autologous B-LCL): 336 RLU
- Proliferation (luminescent ATP assay), Mean (Donor 3 GMA T-Cell Lines; T-cell line 165-H11G, 30 μg/mL antigen, Day 50 of culturing, No Antigen Value 1485): 1599 RLU
- Non-Canonical Peptide Non-Reactivity (Donor 3 COP T-Cell Lines; 165-C4C): GAT 111
- Non-Canonical Peptide Non-Reactivity (Donor 3 COP T-Cell Lines; 165-C7C): GAT 111
- proliferation response to non-canonical peptides (Donor 3 COP T-Cell Lines; 165-E3C, separate experiment): did not react
- Non-Canonical Peptide Non-Reactivity (Donor 3 COP T-Cell Lines; 165-F3C): GAT 111
- Non-Canonical Peptide Non-Reactivity (Donor 3 COP T-Cell Lines; 165-F6C): GAT 111
- Non-Canonical Peptide Non-Reactivity (Donor 3 COP T-Cell Lines; 165-U3C (so in the source)): GAT 111
- Nonreactive T-Cell Line (Donor 3 COP T-Cell Lines; Donor 3 COP lines, stimulation with the non-canonical GA peptide): 165-C4C (Donor 3) and 165-C7C (Donor 3) and 165-E3C (Donor 3) and 165-F3C (Donor 3) and 165-F6C (Donor 3)
- Proliferation (luminescent ATP assay), Mean (Donor 3 COP T-Cell Lines; T-cell line 165-C4C, 1 μg/mL antigen, Day 66 of culture, 0 μg/mL 1881): 2330
- Proliferation (luminescent ATP assay), Mean (Donor 3 COP T-Cell Lines; T-cell line 165-C4C, 3 μg/mL antigen, Day 66 of culture, 0 μg/mL 1881): 2392
- Proliferation (luminescent ATP assay), Mean (Donor 3 COP T-Cell Lines; T-cell line 165-C4C, 10 μg/mL antigen, Day 66 of culture, 0 μg/mL 1881): 2233
- Proliferation (luminescent ATP assay), Mean (Donor 3 COP T-Cell Lines; T-cell line 165-C7C, 1.25 μg/mL antigen, autologous B-LCL): 273 RLU
- Proliferation (luminescent ATP assay), Mean (Donor 3 COP T-Cell Lines; T-cell line 165-C7C, 2.5 μg/mL antigen, autologous B-LCL): 231 RLU
- Proliferation (luminescent ATP assay), Mean (Donor 3 COP T-Cell Lines; T-cell line 165-C7C, 5 μg/mL antigen, autologous B-LCL): 224 RLU
- Proliferation (luminescent ATP assay), Mean (Donor 3 COP T-Cell Lines; T-cell line 165-C7C, 10 μg/mL antigen, autologous B-LCL): 264 RLU
- Proliferation (luminescent ATP assay), Mean (Donor 3 COP T-Cell Lines; T-cell line 165-F3C, 1 μg/mL antigen, Day 77 of culture, 0 μg/mL 1563): 2387
- Proliferation (luminescent ATP assay), Mean (Donor 3 COP T-Cell Lines; T-cell line 165-F3C, 3 μg/mL antigen, Day 77 of culture, 0 μg/mL 1563): 2269
- Proliferation (luminescent ATP assay), Mean (Donor 3 COP T-Cell Lines; T-cell line 165-F3C, 10 μg/mL antigen, Day 77 of culture, 0 μg/mL 1563): 1772
- Proliferation (luminescent ATP assay), Mean (Donor 3 COP T-Cell Lines; T-cell line 165-F6C, 1.25 μg/mL antigen, Day 76 of culture, No Antigen value 517): 576
- Proliferation (luminescent ATP assay), Mean (Donor 3 COP T-Cell Lines; T-cell line 165-F6C, 2.5 μg/mL antigen, Day 76 of culture, No Antigen value 517): 620
- Proliferation (luminescent ATP assay), Mean (Donor 3 COP T-Cell Lines; T-cell line 165-F6C, 5 μg/mL antigen, Day 76 of culture, No Antigen value 517): 479
- Proliferation (luminescent ATP assay), Mean (Donor 3 COP T-Cell Lines; T-cell line 165-F6C, 10 μg/mL antigen, Day 76 of culture, No Antigen value 517): 411
